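How tested: cells in 96-well plates exposed to compound for 48 hours at five concentrations. At the GI50, growth is halved. TGI denotes the concentration required for complete inhibition of growth.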
Key:
Assay in all cases: DTP human tumour cell line panel, 48 h
MDA-MB-231 breast = tested on: MDA-MB-231 breast
HOP-62 NSCLC = tested on: HOP-62 NSCLC
OVCAR-8 ovarian = tested on: OVCAR-8 ovarian
SN12C renal = tested on: SN12C renal
MOLT-4 leukemia = tested on: MOLT-4 leukemia
EKVX NSCLC = tested on: EKVX NSCLC
TK-10 renal = tested on: TK-10 renal
SW-620 colon = tested on: SW-620 colon

CCCCCCCCCCCCC(O)c1ccc(C#CCCCCCCCCCO)o1 (stereo not given)
GI50 (MDA-MB-231 breast): 20.4 µM
TGI (MDA-MB-231 breast): 36.2 µM
GI50 (HOP-62 NSCLC): 20.1 µM
TGI (HOP-62 NSCLC): 35.5 µM
GI50 (OVCAR-8 ovarian): 16.5 µM
TGI (OVCAR-8 ovarian): 33.6 µM
GI50 (SN12C renal): 18.7 µM
TGI (SN12C renal): 33.2 µM
GI50 (MOLT-4 leukemia): 4.69 µM
TGI (MOLT-4 leukemia): 26.7 µM
GI50 (EKVX NSCLC): 22.2 µM
TGI (EKVX NSCLC): 43.1 µM
GI50 (TK-10 renal): 15.7 µM
TGI (TK-10 renal): 30.5 µM
GI50 (SW-620 colon): 22.7 µM
TGI (SW-620 colon): 41.4 µM

O=C(O)c1ccc2c(c1C(=O)O)C(=O)OC2(c1ccc(O)cc1)c1ccc(O)cc1
TGI (MDA-MB-231 breast): > 100 µM
TGI (HOP-62 NSCLC): > 100 µM
TGI (OVCAR-8 ovarian): > 100 µM
TGI (SN12C renal): > 100 µM
TGI (MOLT-4 leukemia): > 100 µM
TGI (EKVX NSCLC): > 100 µM
TGI (TK-10 renal): > 100 µM
TGI (SW-620 colon): > 100 µM

CCOC(=S)SCC(=O)O
TGI (MDA-MB-231 breast): > 100 µM
TGI (HOP-62 NSCLC): > 100 µM
TGI (OVCAR-8 ovarian): > 100 µM
TGI (SN12C renal): > 100 µM
TGI (MOLT-4 leukemia): > 100 µM
TGI (EKVX NSCLC): > 100 µM
TGI (TK-10 renal): > 100 µM
TGI (SW-620 colon): > 100 µM

CCN(C(=O)N1CCN(c2cc3c(cc2F)c(=O)c(C(=O)O)cn3C2CC2)CC1)c1nc(-c2ccc(Cl)cc2)cs1
GI50 (MDA-MB-231 breast): 1.69 µM
TGI (MDA-MB-231 breast): 6.35 µM
GI50 (HOP-62 NSCLC): 1.6 µM
TGI (HOP-62 NSCLC): 17.7 µM
GI50 (OVCAR-8 ovarian): 1.31 µM
TGI (OVCAR-8 ovarian): > 100 µM
GI50 (SN12C renal): 0.991 µM
TGI (SN12C renal): > 100 µM
GI50 (MOLT-4 leukemia): 0.542 µM
TGI (MOLT-4 leukemia): 3.67 µM
GI50 (EKVX NSCLC): 2.54 µM
TGI (EKVX NSCLC): > 100 µM
GI50 (TK-10 renal): 2.89 µM
TGI (TK-10 renal): > 51.9 µM
GI50 (SW-620 colon): 1.83 µM
TGI (SW-620 colon): > 100 µM

COC[C@H]1Cn2cc(-c3nc(Nc4ccnn4C)ncc3C)nc2C(=O)N1Cc1ccc(F)c(F)c1
GI50 (MDA-MB-231 breast): 0.678 µM
TGI (MDA-MB-231 breast): > 78.6 µM
GI50 (HOP-62 NSCLC): 1.15 µM
TGI (HOP-62 NSCLC): > 100 µM
GI50 (OVCAR-8 ovarian): 98.2 µM
TGI (OVCAR-8 ovarian): > 100 µM
GI50 (SN12C renal): 11.1 µM
TGI (SN12C renal): > 100 µM
GI50 (MOLT-4 leukemia): 23.9 µM
TGI (MOLT-4 leukemia): > 100 µM
GI50 (EKVX NSCLC): 0.255 µM
TGI (EKVX NSCLC): > 100 µM
GI50 (TK-10 renal): 5.5 µM
TGI (TK-10 renal): > 100 µM
GI50 (SW-620 colon): 0.156 µM
TGI (SW-620 colon): > 100 µM

COc1ccc(CCN=C2NC(=O)/C(=C/c3ccc4ncccc4c3)S2)cc1
GI50 (MDA-MB-231 breast): > 25 µM
TGI (MDA-MB-231 breast): > 25 µM
GI50 (HOP-62 NSCLC): > 25 µM
TGI (HOP-62 NSCLC): > 25 µM
GI50 (OVCAR-8 ovarian): > 25 µM
TGI (OVCAR-8 ovarian): > 25 µM
GI50 (SN12C renal): > 25 µM
TGI (SN12C renal): > 25 µM
GI50 (MOLT-4 leukemia): > 25 µM
TGI (MOLT-4 leukemia): > 25 µM
GI50 (TK-10 renal): > 25 µM
TGI (TK-10 renal): > 25 µM
GI50 (SW-620 colon): > 25 µM
TGI (SW-620 colon): > 25 µM

COc1cc(-c2ccc3cc(OC)c(OC)c(OC)c3c2)cc(OC)c1OC
GI50 (MDA-MB-231 breast): 8.91 µM
TGI (MDA-MB-231 breast): > 100 µM
GI50 (HOP-62 NSCLC): 16.1 µM
TGI (HOP-62 NSCLC): 75.4 µM
GI50 (OVCAR-8 ovarian): > 100 µM
TGI (OVCAR-8 ovarian): > 100 µM
GI50 (SN12C renal): > 100 µM
TGI (SN12C renal): > 100 µM
GI50 (MOLT-4 leukemia): > 100 µM
TGI (MOLT-4 leukemia): > 100 µM
GI50 (TK-10 renal): 27.9 µM
TGI (TK-10 renal): 84.3 µM

COc1cccc(C(=O)NC(c2ccc(C)cc2)c2cc(Cl)c3cccnc3c2O)c1 (stereo not given)
GI50 (MDA-MB-231 breast): 0.612 µM
TGI (MDA-MB-231 breast): 15.4 µM
GI50 (HOP-62 NSCLC): 0.496 µM
TGI (HOP-62 NSCLC): 9.58 µM
GI50 (OVCAR-8 ovarian): 0.476 µM
TGI (OVCAR-8 ovarian): 26.7 µM
GI50 (SN12C renal): 0.661 µM
TGI (SN12C renal): 13.2 µM
GI50 (MOLT-4 leukemia): 0.622 µM
TGI (MOLT-4 leukemia): 8.05 µM
GI50 (TK-10 renal): 0.393 µM
TGI (TK-10 renal): 4.8 µM
GI50 (SW-620 colon): 0.425 µM
TGI (SW-620 colon): 23.4 µM

CCCCCCCCCCCCCCCC[N+](C)(C)Cc1ccccc1
GI50 (MDA-MB-231 breast): 1.38 µM
TGI (MDA-MB-231 breast): 3.32 µM

N[C@@H]1CCCC[C@@H]1N.O=P([O-])([O-])CN(CCN(CP(=O)([O-])[O-])CP(=O)([O-])[O-])CP(=O)([O-])[O-].[Pt+2]
GI50 (HOP-62 NSCLC): > 25 µM
TGI (HOP-62 NSCLC): > 25 µM
GI50 (OVCAR-8 ovarian): > 25 µM
TGI (OVCAR-8 ovarian): > 25 µM
GI50 (SN12C renal): > 25 µM
TGI (SN12C renal): > 25 µM
GI50 (MOLT-4 leukemia): > 25 µM
TGI (MOLT-4 leukemia): > 25 µM
GI50 (EKVX NSCLC): > 25 µM
TGI (EKVX NSCLC): > 25 µM
GI50 (TK-10 renal): > 25 µM
TGI (TK-10 renal): > 25 µM
GI50 (SW-620 colon): > 25 µM
TGI (SW-620 colon): > 25 µM

— PubChem BioAssay (NCI)
